Measurements taken from patent US5057523A, “Dipeptide quinolone derivatives” (Abbott Laboratories, priority 1989, dated 1991).

Assays:
[1] = test system: Stap. Aureus NCTC 10649; test: Acute mouse protection test; assay type: in vivo; details: mice infected intraperitoneally with Stap. Aureus NCTC 10649, dosed at 1 and 5 hours post-infection
[2] = test system: E. Coli Juhl; test: Acute mouse protection test; assay type: in vivo; details: mice infected intraperitoneally with E. Coli JUHL, dosed at 1 and 5 hours post-infection
[3] = test system: Ps. Aeruginosa A5007; test: Second in vitro test, MIC in Brain Heart Infusion Broth (BHIB)
Description: (§1) The in vitro antibacterial activity of the test compounds was determined by conventional agar dilution procedures. The organisms were grown overnight in brain-heart infusion (BHI) broth (Difco 0037-01-6) at 36° C. Twofold dilutions of the stock solution (2000 mcg/mL) of the test compound were made in BHI agar to obtain a test concentration ranging from 200 to 0.005 mcg/mL. The plate was inoculated with approximately 10^4 organisms. It was then incubated at 36° C. for 18 h.

[4] = Plasma level in dog after oral dose; assay type: in vivo; details: 10 mg equivalent/kg oral dose, HPLC
Description: The plasma samples were collected and determined by the HPLC analysis.

[5] = test system: E. Coli Juhl; test: Second in vitro test, MIC in Brain Heart Infusion Broth (BHIB)
Description: as §1

[6] = Conversion of prodrug to parent drug in whole blood at 37° C.; assay type: in vitro ADME; details: conversion to parent drug in dog whole blood at 37° C.; seconds; two values = two prodrug peaks
Description: An aqueous solution of prodruq (Z) is spiked into fresh whole blood containing sodium heparin as an anticoagulant. The sample is mixed gently by inversion and placed in a 37° waterbath. At selected time intervals an 0.5 ml aliquot of blood is removed and placed in a chilled 1.5 ml centrifuge tube (ice temperature). Samples are centrifuges at 13,000 rpm for two minutes to separate plasma. An 0.2 ml aliquot of the plasma sample is combined with 0.2 ml internal standard (7-(4-amino-2-methyl-1-pyrrolidinyl)-1-(2,4-difluorophenyl)-6-fluoro-1,4-d ihydro-4-oxo-1,8-naphthyridine-3-carboxylic acid in 0.2 M sodium phosphate pH 7.2 buffer) and 6 mls CH2 Cl2 :EtoH (9:1 by volume). Samples are capped and shaken gently for 10 minutes. Samples are centrifuqes at 2500 rpm for 10 minutes (4° C.). The aqueous layer is aspirated to waste and the organic layer is transferred to a conical centrifuge tube and evaporated to dryness with a stream of dry air and low heat […]. Samples are reconstituted with 0.2 ml mobile phase followed by vortexing. Samples are centrifuqes at 2500 rpm for 10 minutes to separate precipitate. The supernatant is transferred to a WISP vial with plastic insert for HPLC analysis.

[7] = Aqueous solubility (water and pH 7.4); details: the sign > refers to an approximate value, solubility may be within 10% higher
[8] = test system: P. Aeruginosa A5007; test: Acute mouse protection test; assay type: in vivo; details: mice infected intraperitoneally with P. Aeruginosa A5007, dosed at 1 and 5 hours post-infection
[9] = test system: Stap. Aureus CMX 553; test: Second in vitro test, MIC in Brain Heart Infusion Broth (BHIB)
Description: as §1

[10] = test system: Strep pyogenes EES 61; test: as above
Description: as §1

Compound: CCC[C@H](NC(=O)[C@@H](N)CCC)C(=O)NC1CCN(c2nc3c(cc2F)c(=O)c(C(=O)O)cn3-c2ccc(F)cc2F)C1.Cl (stereo partly drawn) [Example 3b, 7-(3-L-Norvaline-L-Norvalineamino-1-pyrrolidinyl)-1-(2,4-difluorophenyl)-6-fluoro-1,4-dihydro-4-oxo-1,8-naphthyridine-3-carboxylic acid hydrochloride]
- Oral (ED50) [1]: 1.8 mg/kg/day
- Oral (ED50) [2]: 4.0 mg/kg/day
- MIC [3]: 50 mg/L
- C max (range) ([4]; maximum plasma concentration): 1.9 (1.5-2.2) mcg/ml
- AUC (0-32 h) ([4]; plasma, 0-32 h): 10.2 µg·h/mg
- MIC [5]: 25 mg/L
- Half Life Dog [6]: 1.44 min
- Water Solubility [7]: > 40 mg/mL
- Oral (ED50) [8]: 9.1 mg/kg/day
- MIC [9]: 12.5 mg/L
- MIC [10]: 12.5 mg/L
